This is an account of results in patent US20190255073A1, “ESTERS OF 3-POLYAMINE DERIVATIVES OF BILE ACIDS FOR THE TREATMENT OF INFECTIONS” (VIRBAC, priority 2016, published 2019).

≈ marks a conversion by molar mass, not a printed value. Like-named read-outs stand apart in the source and are kept apart here.

One test deals with S. aureus ATCC25923. The experiment in a line: MIC determination by microplate dilution, S. aureus human strain. Type of test: cell-based, Staphylococcus aureus. The note with it: Staphylococcus aureus, ATCC25923, Gram-positive, Mueller-Hinton medium, 24 h, 37° C. The procedure: (§1) 1) Preparation of the Preculture
(§2) A negative control (2 mL of sterile culture medium)
(§3) A positive control (1940 μL of culture medium+40 μL of DMSO+20 μL of bacterial suspension) from a thawed biological strain (the biological strains are stored at −80° C. in glycerol).
(§4) The tubes were incubated at 37° C. for 24 hours at 100 rpm.
(§5) The microorganisms were handled under a type L2 laboratory fume cupboard and, before any handling, a UV cycle was programmed and only sterile material was used. […] The chemical compounds to be tested were prepared in a DMSO/methanol mixture (50/50) at a concentration of 5 mg/mL.
(§6) 2) Preparation of the Microplate for the Determination of the Minimum Inhibitory Concentration (MIC)
(§7) After 24 hours of incubation, a measurement of the optical density was taken using a spectrophotometer at 600 nm, collecting 100 μL of the bacterial suspension diluted in 900 μL of the sterile culture medium. This test required the use of a 96-well plate and the required volume of the microbial suspension to be seeded was calculated for an OD corresponding to a value equal to 0.01 in each well. In this plate, the first line corresponded to the negative control (195 μL of sterile culture medium in each well), the second line to the positive control (seeded culture medium supplemented with 2% of DMSO), the third line was loaded twice with bacterial suspension, 8 μL of test product were placed in each well. Thereafter, a 0.5 cascade dilution was performed from this line.
(§8) The first column served as inhibition control. A sterile filter was then placed on the microplate, allowing the passage of gases but not of contaminants. The microplate was incubated at 37° C. under a humid atmosphere for 24 hours.
(§9) NB: The medium used is Mueller-Hinton (MH) medium for bacteria. All the tests were performed in duplicate.
(§10) 4) Reading of the Results
(§11) After incubation, the filter was replaced with a transparent film, and an OD reading was then taken in an iEMS plate spectrophotometer at 620 nm. Calculation of the minimum inhibitory concentration (MIC) was performed.

For the next test, the system named is S. aureus (340). Nature of the test: MIC determination by microplate dilution, S. aureus animal strain. Type of test: cell-based, Staphylococcus aureus. Conditions: Staphylococcus aureus, Gram-positive, Mueller-Hinton medium, 24 h, 37° C. As for the experimental part:
as §1, §2, §3, §4, §5, §6, §7, §8, §9, §10, §11

Another test concerns S. intermedius (1051997). The experiment in a line: MIC determination by microplate dilution, S. intermedius animal strain. The format is cell-based, Staphylococcus intermedius. Conditions: Staphylococcus intermedius, Gram-positive, Mueller-Hinton medium, 24 h, 37° C. As for the experimental part:
as §1, §2, §3, §4, §5, §6, §7, §8, §9, §10, §11

For another test, the system named is E. faecalis ATCC29212. Nature of the test: MIC determination by microplate dilution, E. faecalis human strain. Type of test: cell-based, Enterococcus faecalis. Conditions: Enterococcus faecalis, ATCC29212, Gram-positive, Mueller-Hinton medium, 24 h, 37° C. As for the experimental part: as §1, §2, §3, §4, §5, §6, §7, §8, §9, §10, §11
A further test has as its system E. coli ATCC28922. The experiment in a line: MIC determination by microplate dilution, E. coli human strain. Type of test: cell-based, Escherichia coli. Conditions: Escherichia coli, ATCC28922, Gram-negative, Mueller-Hinton medium, 24 h, 37° C. As for the experimental part: as §1, §2, §3, §4, §5, §6, §7, §8, §9, §10, §11
The test system of another test is E. coli (1956). The experiment in a line: MIC determination by microplate dilution, E. coli animal strain. Conditions: Escherichia coli, Gram-negative, Mueller-Hinton medium, 24 h, 37° C. The format is cell-based, Escherichia coli. The procedure:
as §1, §2, §3, §4, §5, §6, §7, §8, §9, §10, §11

In a further test the test system is P. aeruginosa ATCC27853. Nature of the test: MIC determination by microplate dilution, P. aeruginosa human strain. The format is cell-based, Pseudomonas aeruginosa. Conditions: Pseudomonas aeruginosa, ATCC27853, Gram-negative, Mueller-Hinton medium, 24 h, 37° C. As for the experimental part:
as §1, §2, §3, §4, §5, §6, §7, §8, §9, §10, §11

Test [1] relates to P. aeruginosa (1051575). The experiment in a line: MIC determination by microplate dilution, P. aeruginosa animal strain. Type of test: cell-based, Pseudomonas aeruginosa. The note with it: Pseudomonas aeruginosa, Gram-negative, Mueller-Hinton medium, 24 h, 37° C. As for the experimental part:
as §1, §2, §3, §4, §5, §6, §7, §8, §9, §10, §11

The subject of a further test is CHO-K1 cells. Nature of the test: WST1 cytotoxicity test on CHO-K1 cells. The format is cell-based, Chinese hamster. Conditions: Cricetulus griseus, read-out: IC50 (μg/mL) CHO. The procedure:
Test WST1 was used to measure the cytotoxic activity of the products. This is a colorimetric test which makes it possible to measure the viability and the degree of cell proliferation. It is based on cleavage of the colorless tetrazolium salts WST-1 (4-[3-(4-iodophenyl)-2-(4-nitrophenyl)-2H-5-tetrazolio]-1,3-benzene disulfonate) with mitochondrial dehydrogenases to the yellow-colored formazan derivative, which may be quantified by spectrophotometry at 420-480 nm.
The WST1 test was performed on Chinese hamster ovary cells. The CHO-K1 cells (ATCC, USA) are kept in culture on McCoy's 5A medium supplemented with 10% fetal calf serum, 2 mM of L-glutamine and a mixture of penicillin-streptomycin (100 U/ml: 10 μg/mL). The culture is incubated at 37° C. under an atmosphere enriched in CO2 (5%), and subcultured every two days.
The cells are transferred into 96-well plates (25 000 cells/mL) in whole McCoy's 5A medium, and maintained for 24 hours at 37° C. under a humid atmosphere enriched in CO2 (5%). Increasing concentrations of test products are added to the wells in double tests and 8 growth controls containing the cells in the medium alone are included in each series of tests. After 24 hours at 37° C. (5% CO2), the culture medium is removed, the cells are rinsed in phosphate buffer (PBS) and 50 μL of PBS containing 10% of reagent WST1 are added to each well. After 20 minutes of incubation at 37° C., the results are read by spectrophotometry at 450 nm.
The results are expressed in dose-response relationships, modeled by nonlinear regression analysis using the TableCurve software. The 50% inhibitory concentration (IC50) represents the concentration of product that is capable of reducing the cell viability by 50%.

Test [2] deals with P. aeruginosa (1051575). The experiment in a line: Potentiation of the doxycycline activity at 2 μg/mL. Type of test: cell-based, Pseudomonas aeruginosa. The note with it: in combination with doxycycline 2 μg/mL; 24 h, 37°.
Where [3] appears, read: Table III, WST1, CHO-K1 cells, 24 h, concentration reducing cell viability by 50%.

For `COC(=O)CC[C@@H](C)[C@H]1CCC2C3CCC4C[C@@H](NCCCN(C)CCCN)CC[C@]4(C)C3CC[C@@]21C` (stereo partly drawn) [(45), methyl 3β-(bis(3-aminopropyl)methylamine)lithocholate], the MIC against S. aureus ATCC25923 is 12 µg/mL (≈ 23.2 µM); with S. aureus (340), 6 µg/mL (≈ 11.6 µM); in the test on S. intermedius (1051997), 3 µg/mL (≈ 5.79 µM); with E. faecalis ATCC29212, 12 µg/mL (≈ 23.2 µM); against E. coli ATCC28922, 26 µg/mL (≈ 50.2 µM); with E. coli (1956), 6 µg/mL (≈ 11.6 µM). For the same compound, the minimum inhibitory concentration (MIC) against P. aeruginosa ATCC27853 and in the test with P. aeruginosa (1051575) [1] was 26 µg/mL (≈ 50.2 µM) each time. Further, in the test on CHO-K1 cells (setting [3]), the IC50 worked out at 46 µg/mL (≈ 88.8 µM).
In the case of `COC(=O)CC[C@@H](C)[C@H]1CCC2C3CCC4C[C@@H](NCCCN(CCCN)CCCN)CC[C@]4(C)C3CC[C@@]21C` (stereo partly drawn) [(46), methyl 3β-(tris(3-aminopropyl)amine)lithocholate], the MIC in the test with S. aureus ATCC25923 was 14 µg/mL (≈ 25 µM); with S. aureus (340), 7 µg/mL (≈ 12.5 µM); with S. intermedius (1051997) it was 4 µg/mL (≈ 7.13 µM); in the test with E. faecalis ATCC29212, 14 µg/mL (≈ 25 µM); against E. coli ATCC28922, 56 µg/mL (≈ 99.8 µM); with E. coli (1956), 28 µg/mL (≈ 49.9 µM). Also, the MIC in the test with P. aeruginosa ATCC27853 and against P. aeruginosa (1051575) [1] was 28 µg/mL (≈ 49.9 µM) in each case. The IC50 with CHO-K1 cells (setting [3]) amounted to 30 µg/mL (≈ 53.5 µM).
As to `COC(=O)CC[C@@H](C)[C@H]1CCC2C3C(C[C@H](O)[C@@]21C)[C@@]1(C)CC[C@H](NCCCNCCCN)C[C@H]1C[C@H]3O` (stereo partly drawn) [Compound (5), methyl 3β-norspermidinocholate], the minimal inhibitory concentration (MIC) in the test on S. aureus ATCC25923 worked out at 3 µg/mL (≈ 5.6 µM); against S. aureus (340) it was 7 µg/mL (≈ 13.1 µM); against S. intermedius (1051997), 2 µg/mL (≈ 3.73 µM); with E. faecalis ATCC29212, 3 µg/mL (≈ 5.6 µM); with E. coli ATCC28922, 14 µg/mL (≈ 26.1 µM); against E. coli (1956), 27 µg/mL (≈ 50.4 µM). The same compound registered an MIC against P. aeruginosa ATCC27853 of 7 µg/mL (≈ 13.1 µM).
With `COC(=O)CC[C@@H](C)[C@H]1CCC2C3C(CC[C@@]21C)[C@@]1(C)CC[C@H](NCCCNCCCNCCCN)CC1C[C@H]3O` (stereo partly drawn) [Compound (8), methyl 3β-norsperminochenodeoxycholate], the minimum inhibitory concentration (MIC) with S. aureus ATCC25923 amounted to 4 µg/mL (≈ 6.93 µM); against S. aureus (340), 4 µg/mL (≈ 6.93 µM); against S. intermedius (1051997), 2 µg/mL (≈ 3.47 µM); with E. coli ATCC28922, 15 µg/mL (≈ 26 µM); with E. coli (1956) it was 29 µg/mL (≈ 50.3 µM); with P. aeruginosa (1051575) [1] it was 7 µg/mL (≈ 12.1 µM). Further, in the test with CHO-K1 cells (CHO-K1, 24 h), the IC50 is 22 µg/mL (≈ 38.1 µM). In the test on P. aeruginosa (1051575) [2], the “MIC - P. aeruginosa (1051575): content of compound of formula (I) to restore the doxycycline activity (at 2 μg/mL)” value worked out at 1 µg/mL.
For the compound `CC(C)OC(=O)CC[C@@H](C)[C@H]1CCC2C3CCC4C[C@@H](NCCCNCCCNCCCN)CC[C@]4(C)C3CC[C@@]21C` (stereo partly drawn) [Compound (15), isopropyl 3β-norsperminolithocholate], the MIC amounted to 7 µg/mL (≈ 11.9 µM) against S. aureus ATCC25923; 7 µg/mL (≈ 11.9 µM) in the test with S. aureus (340); 1 µg/mL (≈ 1.7 µM) with S. intermedius (1051997); 14 µg/mL (≈ 23.8 µM) in the test on E. coli ATCC28922; 7 µg/mL (≈ 11.9 µM) against E. coli (1956); 2 µg/mL (≈ 3.4 µM) against P. aeruginosa (1051575) [1]. For the same compound, the IC50 in the test with CHO-K1 cells (CHO-K1, 24 h) came out at 15 µg/mL (≈ 25.5 µM). In addition, the “MIC - P. aeruginosa (1051575): content of compound of formula (I) to restore the doxycycline activity (at 2 μg/mL)” value in the test on P. aeruginosa (1051575) [2] is 2 µg/mL.
On to `COC(=O)CC[C@@H](C)[C@H]1CCC2C3CCC4C[C@@H](NCCCNCCCNCCCN)CC[C@]4(C)C3CC[C@@]21C` (stereo partly drawn) [Compound (17), methyl 3β-norsperminolithocholate], for which the minimum inhibitory concentration (MIC) against S. aureus ATCC25923 was 16 µg/mL (≈ 28.5 µM); in the test with S. aureus (340), 4 µg/mL (≈ 7.13 µM); with S. intermedius (1051997) it was 4 µg/mL (≈ 7.13 µM); against E. faecalis ATCC29212, 4 µg/mL (≈ 7.13 µM); in the test with E. coli ATCC28922, 28 µg/mL (≈ 49.9 µM); against E. coli (1956), 7 µg/mL (≈ 12.5 µM). In addition, the results for the MIC in the test on P. aeruginosa ATCC27853 and against P. aeruginosa (1051575) [1] were 28 µg/mL (≈ 49.9 µM) and 7 µg/mL (≈ 12.5 µM), respectively. Further, the IC50 in the test with CHO-K1 cells (setting [3]) was 14 µg/mL (≈ 25 µM).

One may read the MIC as the smallest concentration in the dilution series that meets the test's criterion for growth inhibition.
